The record followed here is EP4775575A1, “COMPOUND USED AS CDK4 KINASE INHIBITOR AND USE THEREOF” (TYK Medicines, Inc., priority 2023, dated 2025).

In one data set the target is T1, CDK6/CyclinD3 (Homo sapiens, UniProt Q00534).
T1 construct: purchased Carna 04-107
The data set is described as follows: Kinase activity assay (MSA, EZ Reader) against CDK6. In kind it is biochemical. The settings on record: CDK6/CyclinD3 5.00 nM, ATP 350 µM, FL-Peptide34, 10mM MgCl2.

The subject of data set [1] is Human breast cancer cells MCF-7. The data set is described as follows: Cell anti-proliferation assay (MTT), MCF-7. In kind it is cell-based. The settings on record: Homo sapiens, MCF7, 120 h, MCF-7 cells, incubated for 5 days. Put shortly:
(§1)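 Cells in DMEM with 10% FBS were seeded at 50,000 cells/mL and grown overnight at 37 °C, 5% CO2, then treated at 9 concentrations (3-fold serial dilution, 0.1% DMSO medium). MTT was added for 3 h, formazan dissolved in acidified isopropanol/NP-40, and absorbance read at 570 nm.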

Data set [2] has as its system human ovarian cancer cells A2780. The data set is described as follows: Cell anti-proliferation assay (MTT), A2780. The settings on record: Homo sapiens, 120 h, incubated for 5 days. Format: cell-based. The procedure, abridged:
as §1

Data set [3] has as its system human mantle cell lymphoma cells JEKO-1. The data set is described as follows: Cell anti-proliferation assay (MTT), JEKO-1. In kind it is cell-based. The settings on record: Homo sapiens, 120 h, JEKO-1 cells, incubated for 5 days. The procedure, abridged:
as §1

Data set [4] is described as follows: Preclinical pharmacokinetic study in rats. In kind it is in vivo, Sprague-Dawley (SD) rats. The settings on record: male SD rats, oral gavage (p.o.) 10 mg/kg, plasma; for AUC(0-t) / Cmax / Tmax: Sprague-Dawley, rat. As for the experimental part: Healthy adult Sprague-Dawley (SD) rats, male, 6-8 weeks old, weighing 200-300 g. EDTA-Na2 anticoagulant. Analytical balance, animal weighing scale, magnetic stirrer, refrigerated centrifuge, single-channel manual pipette, etc. About 10 mg of the test sample was precisely weighed, dissolved in a calculated volume of 5% DMSO, followed by addition of 10% solutol HS-15 and 85% normal saline. The mixture was sonicated and vortexed to homogeneity to obtain a solution with a concentration of 1 mg/mL. The solution was freshly prepared before use. Animals were housed in rat cages and fasted overnight (no less than 10 h) before the test, with free access to water. On the day of the test, animals were weighed and marked on the tail. Blank blood samples were collected before administration. The blood was collected via tail vein. • Route of administration: oral gavage (p.o.) • Dose: 10 mg/kg • Dosing volume: 10 mL/kg • Procedure: The rat was held upright with the left hand wearing bite-resistant glove. A 16-gauge gavage needle was inserted through the mouth into the esophagus. The needle was advanced gently without obvious resistance, and the drug solution was injected into the stomach. Whole blood (0.1 mL) were collected from each test animal before administration and at 0.5 […], and 24 h after administration into EDTA-Na2 anticoagulant tubes. The tubes were inverted 3-4 times for mixing, then centrifuged at 10,000 g for 5 min at 4 °C to separate plasma. Plasma samples were stored at -80 °C until analysis. Blood was collected via tail vein. […] The mixture was vortexed for 2 min and centrifuged at 10,000 g for 10 min at 4 °C. Processing of unknown plasma samples: 25 μL of drug-containing rat plasma was transferred, followed by addition of 25 μL of methanol and 200 μL of internal standard solution. The mixture was vortexed for 2 min and centrifuged at 10,000 g for 10 min at 4 °C. The supernatant was collected for LC-MS/MS analysis. A quantitative method for the determination of the test compound was established using a Shimadzu liquid chromatography system coupled with Triple Quad^TM 6500+ AB mass spectrometer. The concentration of the parent drug in plasma was determined. The plasma concentration-time curve was plotted, and the main pharmacokinetic parameters were calculated using a non-compartmental model in winnonlin Phoenix software.

A further data set concerns the target CDK4/CycD1 (Homo sapiens, UniProt P11802). The data set is described as follows: Kinase activity assay (MSA, EZ Reader) against CDK4.

T1 sequence (Q00534 whole entry): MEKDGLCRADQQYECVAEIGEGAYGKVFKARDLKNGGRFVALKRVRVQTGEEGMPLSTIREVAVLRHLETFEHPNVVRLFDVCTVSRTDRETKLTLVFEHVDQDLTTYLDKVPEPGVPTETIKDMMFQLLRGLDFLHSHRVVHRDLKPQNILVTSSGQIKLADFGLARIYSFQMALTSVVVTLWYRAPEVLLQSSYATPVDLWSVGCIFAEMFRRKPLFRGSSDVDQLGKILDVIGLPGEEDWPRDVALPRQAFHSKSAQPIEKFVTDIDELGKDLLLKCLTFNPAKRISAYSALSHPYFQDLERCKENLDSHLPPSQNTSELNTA
T1 sequence (P30281 whole entry partner): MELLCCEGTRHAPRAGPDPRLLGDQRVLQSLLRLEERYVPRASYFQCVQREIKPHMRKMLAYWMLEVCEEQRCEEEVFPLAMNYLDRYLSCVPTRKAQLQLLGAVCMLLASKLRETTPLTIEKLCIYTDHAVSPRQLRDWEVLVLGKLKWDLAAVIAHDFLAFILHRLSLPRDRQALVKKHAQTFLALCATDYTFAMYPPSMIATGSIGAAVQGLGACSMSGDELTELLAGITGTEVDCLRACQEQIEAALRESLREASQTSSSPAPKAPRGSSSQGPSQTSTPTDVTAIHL
Sequence of CDK4/CycD1 (P11802 whole entry): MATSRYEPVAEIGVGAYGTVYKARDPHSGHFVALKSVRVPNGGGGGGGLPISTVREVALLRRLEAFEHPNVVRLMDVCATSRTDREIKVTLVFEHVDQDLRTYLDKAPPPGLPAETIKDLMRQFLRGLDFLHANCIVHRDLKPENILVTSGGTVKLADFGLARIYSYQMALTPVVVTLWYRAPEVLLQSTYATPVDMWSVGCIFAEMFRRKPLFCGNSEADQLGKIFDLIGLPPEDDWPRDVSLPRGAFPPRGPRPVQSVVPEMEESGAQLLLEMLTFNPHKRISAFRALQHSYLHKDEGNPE

By IC50 is commonly meant the concentration needed to halve the response being measured. Usually AUC(0-t) stands for the area under the concentration-time curve up to a stated or last time point. The Cmax is the maximum level reached in the sampled fluid or tissue. The term Tmax denotes the time at which the peak concentration occurs. As for `C[C@H]1CCN(C2CC2)c2nc3c(F)cc(-c4nc(N[C@@H]5CCOC[C@H]5O)ncc4Cl)cc3n21` [TA-4], the IC50 at CDK6/CyclinD3 was 63.9 nM; in data set [1], ≤ 500 nM; in data set [2], ≤ 500 nM; in data set [3], ≤ 500 nM; on CDK4/CycD1 it was 4.4 nM. In data set [4], this molecule displayed an AUC(0-t) of 16200 ng·h/mL. Also, the Cmax in data set [4] was 4430 ng/mL. The Tmax in data set [4] amounted to 1 h. Besides, the “HL_” value in data set [4] is 3.19 h.
For the molecule `C[C@H]1CCN(c2ccccc2)c2nc3c(F)cc(-c4nc(N[C@@H]5CCOC[C@H]5O)ncc4Cl)cc3n21` [TA-33], at CDK6/CyclinD3, the concentration for half-maximal inhibition (IC50) turned out to be 94.2 nM. Further, in data set [4], the AUC(0-t) amounted to 2170 ng·h/mL, the highest level (Cmax) was 262 ng/mL and the Tmax stood at 4.67 h. This molecule gave an IC50 against CDK4/CycD1 of 3.4 nM.
In the case of `CC(C)n1c(N2CCOCC2)nc2c(F)cc(-c3nc(N[C@@H]4CCOC[C@H]4O)ncc3Cl)cc21` [TB-12, (3S,4R)-4-((5-chloro-4-(4-fluoro-1-isopropyl-2-morpholino-1H-benzo[d]imidazol-6-yl)pyrimidin-2-yl)amino)tetrahydro-2H-pyran-3-ol], the IC50 is 151 nM on CDK6/CyclinD3; ≤ 500 nM in data set [1]; ≤ 500 nM in data set [2]; ≤ 500 nM in data set [3]; 6.01 nM on CDK4/CycD1. This molecule had an AUC(0-t) in data set [4] of 4500 ng·h/mL. In data set [4], this molecule registered a Cmax of 677 ng/mL. Besides, in data set [4], the Tmax amounted to 1.5 h. The “HL_” value in data set [4] stood at 3.14 h.
For the molecule `CC(C)n1c(N2CCOC2=O)nc2c(F)cc(-c3nc(N[C@@H]4CCOC[C@H]4O)ncc3Cl)cc21` [TB-24], the IC50 against CDK6/CyclinD3 is 143 nM; in data set [1], ≤ 500 nM; in data set [2] it was ≤ 500 nM; in data set [3], ≤ 500 nM; against CDK4/CycD1, 10.1 nM. Moreover, the AUC(0-t) in data set [4] turned out to be 4500 ng·h/mL. This molecule also came in with a Cmax in data set [4] of 677 ng/mL. The Tmax in data set [4] amounted to 1.67 h. For the same molecule, the “HL_” value in data set [4] worked out at 3.14 h.
Regarding `CCS(=O)(=O)N1CCC(Nc2ncc(Cl)c(-c3cc(F)c4nc(N5CCOC5=O)n(C(C)C)c4c3)n2)CC1` [TB-31], the IC50 on CDK6/CyclinD3 was 182 nM; in data set [1] it was ≤ 500 nM; in data set [2] it was ≤ 500 nM; in data set [3], ≤ 500 nM; on CDK4/CycD1, 15.3 nM. In data set [4], this molecule came in with an AUC(0-t) of 4890 ng·h/mL. Besides, the concentration in data set [4] peaked (Cmax) at 923 ng/mL. In data set [4], the Tmax was found to be 4 h. In data set [4], the “HL_” value turned out to be 1.34 h.
`C[C@H]1CCN(C)c2nc3c(F)cc(-c4nc(Nc5ccncc5)ncc4Cl)cc3n21` [TB-137, (S)-5-chloro-4-(9-fluoro-1,4-dimethyl-1,2,3,4-tetrahydrobenzo[4,5]imidazo[1,2-a]pyrimidin-7-yl)-N-(pyridin-4-yl)pyrimidin-2-amine]: the IC50 was 175 nM against CDK6/CyclinD3; ≤ 500 nM in data set [1]; ≤ 500 nM in data set [2]; ≤ 500 nM in data set [3]; 28.3 nM at CDK4/CycD1. For the same molecule, in data set [4], the AUC(0-t) stood at 3670 ng·h/mL. This molecule also returned a Cmax in data set [4] of 1240 ng/mL. Besides, the Tmax in data set [4] was found to be 0.83 h. In addition, the “HL_” value in data set [4] amounted to 4.10 h.
For `C[C@H]1CCN(C)c2nc3c(F)cc(-c4cc(N[C@@H]5CCOC[C@H]5O)ncc4Cl)cc3n21` [TB-149], the IC50 was 90.8 nM on CDK6/CyclinD3; ≤ 500 nM in data set [1]; ≤ 500 nM in data set [2]; ≤ 500 nM in data set [3]; 5.3 nM against CDK4/CycD1. In data set [4], this molecule had an AUC(0-t) of 25400 ng·h/mL. In addition, the concentration in data set [4] peaked (Cmax) at 4160 ng/mL. Besides, in data set [4], the Tmax was found to be 1.17 h. Moreover, the “HL_” value in data set [4] came out at 1.99 h.
Regarding `C[C@H]1CCN(CC#N)c2nc3c(F)cc(-c4nc(N[C@@H]5CCOC[C@H]5O)ncc4Cl)cc3n21` [TC-2], the IC50 was 75.7 nM at CDK6/CyclinD3; 500 to 2000 nM in data set [1]; ≤ 500 nM in data set [2]; ≤ 500 nM in data set [3]; 4.5 nM against CDK4/CycD1. Also, in data set [4], the AUC(0-t) worked out at 1240 ng·h/mL. Further, in data set [4], the highest level (Cmax) was 400 ng/mL. Also, in data set [4], the Tmax was determined as 0.67 h. Moreover, the “HL_” value in data set [4] worked out at 2.87 h.
`C[C@H]1CCN(c2ccccc2F)c2nc3c(F)cc(-c4nc(N[C@@H]5CCOC[C@H]5O)ncc4Cl)cc3n21` [TC-12]: the IC50 is 45.7 nM at CDK6/CyclinD3; ≤ 500 nM in data set [1]; ≤ 500 nM in data set [2]; ≤ 500 nM in data set [3]; 1.9 nM on CDK4/CycD1. Further, the AUC(0-t) in data set [4] came out at 1290 ng·h/mL. In data set [4], this molecule displayed a Cmax of 417 ng/mL. The Tmax in data set [4] came out at 1 h. The “HL_” value in data set [4] is listed as 2.55 h.
Consider `C[C@H]1CCN(c2ccc(C#N)cc2)c2nc3c(F)cc(-c4nc(N[C@@H]5CCOC[C@H]5O)ncc4Cl)cc3n21` [TC-17], for which the IC50 was > 500 nM against CDK6/CyclinD3; ≤ 500 nM in data set [1]; ≤ 500 nM in data set [2]; ≤ 500 nM in data set [3]; 4.5 nM against CDK4/CycD1.
